The results in this text go back to patent publication US8637510B2, “Morpholinothiazoles as alpha 7 positive allosteric modulators” (Janssen Pharmaceutica NV, priority 2009, dated 2014).

The target of test [1] is T1, human alpha 7-wt nAChR (Homo sapiens, UniProt P36544).
T1 construct: expressed in transfected cells
The experiment in a line: Ca2+ flux imaging (FDSS) (Protocol B). The class given is cell-based. As to conditions: for Emax: efficacy of 100 μM choline defined as 100% in the absence of a PAM, read-out: a7-PAM-G_[33]_Eff_Curve_FI % Efficacy; for EC50: potentiation of 100 μM choline, compounds 0.01 μM to 30 μM, read-out: a7-PAM-G_[33]_pEC50 pEC50 (converted). Put shortly: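 PAM activity was measured as FDSS calcium fluorescence in α7-wt nAChR cells loaded with 2 μM Fluo-4AM, with compounds at 0.01–30 μM added alongside or 10 min ahead of sub-maximal 100 μM choline. Peak responses were normalised to choline-only efficacy, and EC50 was taken at half-maximal effect.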
(Calcium flux is commonly read through the fluorescence of an indicator in the cells.)

Test [2] concerns the target T2, human alpha 7-wt nAChR-expressing GH4C1 cells (Homo sapiens, UniProt P36544).
T2 construct: expressed in transfected cells
Nature of the test: Patch-clamp current recording (whole-cell voltage-clamp, PAM type classification). As to conditions: 1 mM choline. It counts as cell-based. On the set-up: key: Type 0 compounds minimally change the effect size of the current elicited by 1 mM choline.; Type 1 compounds enhance the effect size of the current elicited by 1 mM choline but minimally alter the kinetics of the receptor.; Type 2 compounds enhance the effect size of the current elicited by 1 mM choline while reducing the rate and/or the extent of desensitization.; Type 3 compounds enhance the effect size of the current elicited by 1 mM choline. When tested at higher concentrations up to 10 μM they completely inhibit desensitization; Type 4 compounds allow for an initial desensitization of the receptor followed by a re-opening of the receptor during agonist application. On the procedure: The compounds of the present invention are classified as type 1-4, based on qualitative kinetic properties, as determined by whole-cell voltage-clamp recordings. This classification is based on the effect of an alpha 7 PAM compound, as described hereinbefore, on the signal elicited by an agonist application. In particular, said agonist is choline at a concentration of 1 mM. In a preferred experimental setting, said alpha 7 PAM compound and choline are simultaneously applied to the cell, as described hereinafter. Desensitization is defined as the closure of the receptor upon activation during the application of the agonist in whole-cell voltage-clamp electrophysiology measurements seen as the reduction of the […] current after initial activation by the agonist.
The definition of the PAM types 1-4 is described hereinafter: • Type 0 compounds minimally change the effect size of the current elicited by 1 mM choline. • Type 1 compounds enhance the effect size of the current elicited by 1 mM choline but minimally alter the kinetics of the receptor. In particular, the rate and the extent of desensitization and of deactivation of the receptor elicited by the agonist is not affected. The compound-modulated response to 1 mM choline, therefore, is close to a linear scaling of the 1 mM choline response in absence of the alpha 7 PAM compound. • Type 2 compounds enhance the effect size of the current elicited by 1 mM choline while reducing the rate and/or the extent of desensitization. Deactivation of the receptor is generally unaffected. • Type 3 compounds enhance the effect size of the current elicited by 1 mM choline. […] Deactivation of the receptor may be slowed down • Type 4 compounds allow for an initial desensitization of the receptor followed by a re-opening of the receptor during agonist application. At low-potency concentrations of the alpha 7 PAM compound, the agonist-induced activation, which is followed by desensitization, can still be separated from the compound-induced re-opening as an initial inward current-maximum. At higher potency concentrations of the alpha 7 PAM compound, the re-opening occurs faster than the closure due to desensitization so that the initial current-maximum disappears.
A compound was considered to have interesting PAM-like activity when the potentiation of the peak current was at least 200% compared to the control choline response (=100%). Such compounds are classified as belonging to a particular PAM type in the Experimental Part. Compounds not meeting the condition are not classified as belonging to a particular PAM-type.
The compounds also have a potentiating effect on the response to choline when measured by whole-cell patch clamp electrophysiology in GH4C1 cells stably over-expressing the human wild-type alpha 7 receptor.
Patch-clamp recording from mammalian cells has provided a powerful means of assessing the function of membrane-bound proteins thought to be subunits of ligand-gated ion channels. Activation of such proteins by endogenous or exogenous ligands cause opening of a pore associated with the receptor through which ions flow down their electrochemical gradient. In the case of the human alpha 7-wt nAChR-expressing GH4C1 recombinant cell line the preferential permeability to calcium of this receptor means that calcium flows into the cell upon activation by ACh, choline and other nicotinic ligands giving rise to a calcium current. Since this receptor rapidly desensitizes in the presence of agonist it is important that an application system is used which is capable of very rapid switching of solutions (<100 ms) to prevent partial or full desensitisation of receptor responses coincident with the time of agonist application. Consequently, a second convenient technique to assess the enhancement of nicotinic efficacy is a patch-clamp recording from human alpha 7-wt nAChR-expressing GH4C1 cells coupled with a rapid-application system. […]
On the technique in general: The patch-clamp technique gives a direct electrical read-out from membranes.

T1 sequence (P36544 23-502): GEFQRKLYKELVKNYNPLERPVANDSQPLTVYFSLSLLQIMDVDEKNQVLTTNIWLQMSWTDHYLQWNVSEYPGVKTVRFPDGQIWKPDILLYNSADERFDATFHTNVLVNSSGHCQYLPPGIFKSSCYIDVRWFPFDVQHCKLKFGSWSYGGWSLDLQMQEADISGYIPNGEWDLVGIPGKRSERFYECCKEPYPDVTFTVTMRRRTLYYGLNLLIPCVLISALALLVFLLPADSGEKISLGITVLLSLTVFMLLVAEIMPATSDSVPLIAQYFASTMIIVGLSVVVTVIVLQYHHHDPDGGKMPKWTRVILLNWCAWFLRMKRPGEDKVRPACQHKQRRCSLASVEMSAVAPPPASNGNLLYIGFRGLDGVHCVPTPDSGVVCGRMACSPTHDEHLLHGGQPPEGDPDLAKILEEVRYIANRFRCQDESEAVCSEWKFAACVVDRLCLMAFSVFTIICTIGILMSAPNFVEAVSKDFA
T2 sequence (P36544 23-502): as above

For `Cc1cc(-c2sc(N3C[C@@H](C)O[C@@H](C)C3)nc2CNC(=O)c2cccnc2C)cc(C)n1` [Compound 17, N-[[2-[(2R,6S)-2,6-dimethyl-4-morpholinyl]-5-(2,6-dimethyl-4-pyridinyl)-4-thiazolyl]methyl]-2-methyl-3-pyridinecarboxamide], in test [1], the Emax came out at 499% and the EC50 is 1000 nM. Besides, the “PAM_Type PAM type” value in test [2] was determined as 2.

Turning to `Cc1cc(-c2sc(N3C[C@@H](C)O[C@@H](C)C3)nc2CNC(=O)c2ccc(Cl)cc2)cc(C)n1` [Compound 19, 4-chloro-N-[[2-[(2R,6S)-2,6-dimethyl-4-morpholinyl]-5-(2,6-dimethyl-4-pyridinyl)-4-thiazolyl]methyl]-benzamide], in test [1], the Emax was determined as 378% and the EC50 was 100 nM. Moreover, the “PAM_Type PAM type” value in test [2] was found to be 2.

On to `Cc1cc(-c2sc(N3C[C@@H](C)O[C@@H](C)C3)nc2CNC(=O)c2ccc(C(F)(F)F)cc2)cc(C)n1` [Compound 23, N-[[2-[(2R,6S)-2,6-dimethyl-4-morpholinyl]-5-(2,6-dimethyl-4-pyridinyl)-4-thiazolyl]methyl]-4-(trifluoromethyl)-benzamide], for which, in test [1], the Emax came to 594% and the EC50 is 229 nM. For the same molecule, in test [2], the “PAM_Type PAM type” value is reported as 2.

Turning to `Cc1cc(-c2sc(N3C[C@@H](C)O[C@@H](C)C3)nc2CNC(=O)c2ccc(F)cc2C)cc(C)n1` [Compound 24, N-[[2-[(2R,6S)-2,6-dimethyl-4-morpholinyl]-5-(2,6-dimethyl-4-pyridinyl)-4-thiazolyl]methyl]-4-fluoro-2-methyl-benzamide], in test [1], the Emax worked out at 526% and the EC50 was 17.4 nM. In test [2], the “PAM_Type PAM type” value was 2.

On to `Cc1cc(-c2sc(N3C[C@@H](C)O[C@@H](C)C3)nc2CNC(=O)c2c(C)noc2C)cc(C)n1` [Compound 25, N-[[2-[(2R,6S)-2,6-dimethyl-4-morpholinyl]-5-(2,6-dimethyl-4-pyridinyl)-4-thiazolyl]methyl]-3,5-dimethyl-4-isoxazolecarboxamide], for which, in test [1], the Emax turned out to be 235% and the EC50 is 813 nM. In addition, the “PAM_Type PAM type” value in test [2] is recorded as 0.

With `Cc1cc(-c2sc(N3C[C@@H](C)O[C@@H](C)C3)nc2CNC(=O)c2cccc(F)c2F)cc(C)n1` [Compound 32, N-[[2-[(2R,6S)-2,6-dimethyl-4-morpholinyl]-5-(2,6-dimethyl-4-pyridinyl)-4-thiazolyl]methyl]-2,3-difluoro-benzamide], in test [1], the Emax worked out at 422% and the EC50 was 380 nM. Further, the “PAM_Type PAM type” value in test [2] worked out at 1.

`Cc1cc(-c2sc(N3C[C@@H](C)O[C@@H](C)C3)nc2CNC(=O)C(C)C)cc(C)n1` [Compound 40, N-[[2-[(2R,6S)-2,6-dimethyl-4-morpholinyl]-5-(2,6-dimethyl-4-pyridinyl)-4-thiazolyl]methyl]-2-methyl-propanamide]: in test [1], the Emax is 965% and the EC50 is 100 nM. In addition, the “PAM_Type PAM type” value in test [2] is reported as 2.

In the case of `Cc1cc(-c2sc(N3C[C@@H](C)O[C@@H](C)C3)nc2CNC(=O)C2CC2)cc(C)n1` [Compound 48, N-[[2-[(2R,6S)-2,6-dimethyl-4-morpholinyl]-5-(2,6-dimethyl-4-pyridinyl)-4-thiazolyl]methyl]-cyclopropanecarboxamide], in test [1], the EC50 was 661 nM. The “PAM_Type PAM type” value in test [2] is reported as 2.

As to `COc1cc(-c2sc(N3C[C@@H](C)O[C@@H](C)C3)nc2CNC(=O)c2conc2C)cc(C)n1` [Compound 81, N-[[2-[(2R,6S)-2,6-dimethyl-4-morpholinyl]-5-(2-methoxy-6-methyl-4-pyridinyl)-4-thiazolyl]methyl]-3-methyl-4-isoxazolecarboxamide], in test [1], the Emax is 384% and the EC50 is 295 nM. Besides, the “PAM_Type PAM type” value in test [2] is 2.

In the case of `Cc1cc(-c2sc(N3C[C@@H](C)O[C@@H](C)C3)nc2CNC(=O)C2CCC2)ccn1` [Compound 89, N-[[2-[(2R,6S)-2,6-dimethyl-4-morpholinyl]-5-(2-methyl-4-pyridinyl)-4-thiazolyl]methyl]-cyclobutanecarboxamide], in test [1], the Emax stood at 528% and the EC50 was 631 nM. Besides, in test [2], the “PAM_Type PAM type” value is 2.

Take `Cc1cc(-c2sc(N3C[C@@H](C)O[C@@H](C)C3)nc2CNC(=O)c2nc(C)oc2C)cc(C)n1` [Compound 134, N-[[2-[(2R,6S)-2,6-dimethyl-4-morpholinyl]-5-(2,6-dimethyl-4-pyridinyl)-4-thiazolyl]methyl]-2,5-dimethyl-4-oxazolecarboxamide]: in test [1], the Emax was 464% and the EC50 was 2400 nM. Further, in test [2], the “PAM_Type PAM type” value is on record as 0.

On to `Cc1cc(-c2sc(N3C[C@@H](C)O[C@@H](C)C3)nc2CNC(=O)c2ccc(S(N)(=O)=O)cc2)cc(C)n1` [Compound 144, 4-(aminosulfonyl)-N-[[2-[(2R,6S)-2,6-dimethyl-4-morpholinyl]-5-(2,6-dimethyl-4-pyridinyl)-4-thiazolyl]methyl]-benzamide], for which the EC50 in test [1] was 2140 nM. Moreover, the “PAM_Type PAM type” value in test [2] is 2.

In the case of `Cc1cc(-c2sc(N3C[C@@H](C)O[C@@H](C)C3)nc2CNC(=O)c2oncc2C)cc(C)n1` [Compound 148, N-[[2-[(2R,6S)-2,6-dimethyl-4-morpholinyl]-5-(2,6-dimethyl-4-pyridinyl)-4-thiazolyl]methyl]-4-methyl-5-isoxazolecarboxamide], in test [1], the EC50 is 1230 nM. Besides, the “PAM_Type PAM type” value in test [2] stood at 0.

With `Cc1cc(-c2sc(N3C[C@@H](C)O[C@@H](C)C3)nc2CNC(=O)C2CC(=O)OC2(C)C)cc(C)n1` (stereo partly drawn) [Compound 154, N-[[2-[(2R,6S)-2,6-dimethyl-4-morpholinyl]-5-(2,6-dimethyl-4-pyridinyl)-4-thiazolyl]methyl]tetrahydro-2,2-dimethyl-5-oxo-3-furancarboxamide], in test [1], the Emax turned out to be 791% and the EC50 is 871 nM. Further, in test [2], the “PAM_Type PAM type” value was found to be 1.

`Cc1cc(-c2sc(N3C[C@@H](C)O[C@@H](C)C3)nc2CNC(=O)Cc2c(C)noc2C)cc(C)n1` [Compound 166, N-[[2-[(2R,6S)-2,6-dimethyl-4-morpholinyl]-5-(2,6-dimethyl-4-pyridinyl)-4-thiazolyl]methyl]-3,5-dimethyl-4-isoxazoleacetamide]: the EC50 in test [1] is 525 nM. Moreover, the “PAM_Type PAM type” value in test [2] is recorded as 1.

Take `Cc1cc(-c2sc(N3C[C@@H](C)O[C@@H](C)C3)nc2CNC(=O)CC(F)(F)F)cc(C)n1` [Compound 168, N-[[2-[(2R,6S)-2,6-dimethyl-4-morpholinyl]-5-(2,6-dimethyl-4-pyridinyl)-4-thiazolyl]methyl]-3,3,3-trifluoro-propanamide]: in test [1], the Emax was determined as 924% and the EC50 is 69.2 nM. Also, in test [2], the “PAM_Type PAM type” value was 1.

With `Cc1cc(-c2sc(N3C[C@@H](C)O[C@@H](C)C3)nc2CNC(=O)COCC(F)(F)F)cc(C)n1` [Compound 175, N-[[2-[(2R,6S)-2,6-dimethyl-4-morpholinyl]-5-(2,6-dimethyl-4-pyridinyl)-4-thiazolyl]methyl]-2-(2,2,2-trifluoroethoxy)-acetamide], the EC50 in test [1] was 525 nM. The “PAM_Type PAM type” value in test [2] is 1.
